IC50 data for 15 molecules are collected here from patent US20240246918A1, “COMPOUNDS AND COMPOSITIONS AS EIF4E INHIBITORS AND THE USES THEREOF” (Ribometrix, Inc., priority 2022, published 2024).

Like-named read-outs stand apart in the source and are kept apart here. A value given as a limit tells only on which side of the number the result lay.

The target in one assay is T1, human eIF4E protein (Homo sapiens, UniProt P06730).
T1 construct: purchased Novus NBP-45314
Put plainly: Biochemical competitive binding assay (TR-FRET competition, EDA-m7GDP-ATTO-647N probe). Particulars: read-out: hEIF4E TR-FRET IC50. Put shortly:
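His-tagged human eIF4E (4 nM) was preincubated with Eu-anti-His antibody (2.5 nM) and added to compound (11-point, 4-fold dilutions) for 15 min. Then 5 nM EDA-m7GDP-ATTO-647N was added for 15 min, in HEPES pH 7.5, 100 mM KCl. The 665/620 TR-FRET ratio was normalized to controls, and IC50 was taken from 4-parameter fits.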
Background: TR-FRET usually uses a lanthanide donor and a delayed reading to cut background.

In assay [1] the test system is COLO 205 colorectal tumor cells. The experiment in a line: Tumor cell viability inhibition assay (CellTiter-Glo 2.0, 72 hours). Particulars: COLO 205 cell viability. The format is cell-based. An outline of the steps:
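COLO 205 cells (1500/well, RPMI-1640 + 10% FBS) exposed for 72 h to an 11-point, 4-fold dilution series; cellular ATP read by CellTiter-Glo 2.0 luminescence. Data normalized to DMSO and maximum-inhibition controls; IC50 from 4-parameter curve fit.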

Assay [2] deals with cyclin D1 protein levels in COLO 205 cells. The experiment in a line: Cyclin D1 cellular inhibition assay (HTRF, 6 hours). The class given is cell-based. Particulars: 6 hours of compound treatment, Cyclin D1 protein levels by HTRF, read-out: COLO 205 6 h Cyclin D1 TR-FRET IC50. As to the method: The effect of compound treatment on cyclin D1 protein levels in COLO 205 cells was assessed, as follows. Test compound plates were prepared with a Tecan D300e Digital Dispenser as 11-point concentration-response curves with a final DMSO concentration of 1%. COLO 205 (ATCC, CCL-222) colorectal tumor cells were seeded to assay-ready plates in RPMI-1640 medium supplemented with 10% FBS at 20,000 cells in a volume of 6 microliters per well. After 6 hours of compound treatment, cells were lysed and Cyclin D1 protein levels were assessed by an HTRF assay (PerkinElmer #64CYCD1ITPEG), according to the manufacturer's protocol. Time-resolved fluorescence was measured using a Clariostar Plus microplate reader (BMG Labtech) or equivalent. After normalization to the average of DMSO control and maximum inhibition control wells, concentration-response data were plotted and standard 4-parameter curve fitting (GraphPad Prism v9.4.1) was utilized to determine IC50 values.

T1 sequence (P06730 whole entry): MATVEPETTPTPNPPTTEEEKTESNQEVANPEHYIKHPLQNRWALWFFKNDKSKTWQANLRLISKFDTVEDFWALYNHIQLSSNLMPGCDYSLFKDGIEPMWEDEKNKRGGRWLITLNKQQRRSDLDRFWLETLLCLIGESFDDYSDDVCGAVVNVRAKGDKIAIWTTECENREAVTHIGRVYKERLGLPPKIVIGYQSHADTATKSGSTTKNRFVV

Regarding `Cc1cc(-c2cc(Cl)ccc2OCCn2c(C)nc3c(c2=O)CC(N(C)Cc2cccnc2)CC3)c2scc(C(=O)O)c2n1` (stereo not drawn) [Compound 196], the half-inhibitory concentration (IC50) (commonly the point on the concentration scale where inhibition reaches its midpoint) on human eIF4E protein was below 0.1 µM; in assay [1] (Homo sapiens, COLO 205, 72 h), below 5 µM; in assay [2] (Homo sapiens, COLO 205, 6 h) it was below 5 µM.
Turning to `Cc1cc(-c2cc(Cl)ccc2OCCn2c(C)nc3c(c2=O)C[C@@H](N2C[C@@H]4CCC(F)(F)[C@@H]4C2)CC3)c2scc(C(=O)O)c2n1` (single isomer, unassigned) [Compound 169], the IC50 on human eIF4E protein was below 0.1 µM; in assay [1] (Homo sapiens, COLO 205, 72 h), below 5 µM; in assay [2] (Homo sapiens, COLO 205, 6 h), below 5 µM.
Regarding `Cc1cc(-c2cc(Cl)ccc2OCCn2c(C)nc3c(c2=O)CC(N2CCc4ccncc4C2)CC3)c2scc(C(=O)O)c2n1` (stereo not drawn) [Compound 171], the IC50 at human eIF4E protein is below 0.1 µM; in assay [1] (Homo sapiens, COLO 205, 72 h) it was below 5 µM; in assay [2] (Homo sapiens, COLO 205, 6 h), below 5 µM.
Turning to `COC1[C@@H]2CC[C@H]1CN(C1CCc3nc(C)n(CCOc4ccc(Cl)cc4-c4cc(C)nc5c(C(=O)O)csc45)c(=O)c3C1)C2` (stereo partly drawn) [Compound 152], the IC50 at human eIF4E protein is below 0.1 µM; in assay [1] (Homo sapiens, COLO 205, 72 h) it was below 5 µM; in assay [2] (Homo sapiens, COLO 205, 6 h), below 5 µM.
In the case of `Cc1cc(-c2cc(Cl)ccc2OCCn2c(C)nc3c(c2=O)CC(N(C)Cc2ncccn2)CC3)c2scc(C(=O)O)c2n1` (stereo not drawn) [Compound 202], the concentration for half-maximal inhibition (IC50) at human eIF4E protein is below 0.1 µM; in assay [1] (Homo sapiens, COLO 205, 72 h), above 20 µM; in assay [2] (Homo sapiens, COLO 205, 6 h), 5 to 20 µM.
On the same counts, the results for `COC1CCN(C2CCc3nc(C)n(CCOc4ccc(Cl)cc4-c4cc(C)nc5c(C(=O)NCC(F)F)csc45)c(=O)c3C2)CC1` (stereo not drawn) [Compound 142] are 0.1 to 0.5 µM, 5 to 20 µM and above 20 µM.
As to `COc1cc(CN(C)C2CCc3nc(C)n(CCOc4ccc(Cl)cc4-c4cc(C)nc5c(C(=O)O)csc45)c(=O)c3C2)ccn1` (single isomer, unassigned) [Compound 218], the 50% inhibitory concentration (IC50) on human eIF4E protein is below 0.1 µM; in assay [1], 5 to 20 µM; in assay [2], below 5 µM.
For the molecule `Cc1cc(-c2cc(Cl)ccc2OCCn2c(C)nc3c(c2=O)CC(N(C)CC2CC(F)(F)C2)CC3)c2scc(C(=O)NC3CC(F)(F)C3)c2n1` (stereo not drawn) [Compound 145], the IC50 on human eIF4E protein was 0.5 to 5 µM; in assay [1] (Homo sapiens, COLO 205, 72 h) it was 5 to 20 µM; in assay [2] (Homo sapiens, COLO 205, 6 h), above 20 µM.
With `Cc1cc(-c2cc(Cl)ccc2OCCn2c(C)nc3c(c2=O)C[C@H](N2C[C@@H]4CC(F)(F)[C@@H]4C2)CC3)c2scc(C(=O)O)c2n1` (single isomer, unassigned) [Compound 146], the IC50 is below 0.1 µM at human eIF4E protein; below 5 µM in assay [1] (Homo sapiens, COLO 205, 72 h); below 5 µM in assay [2] (Homo sapiens, COLO 205, 6 h).
As for `Cc1cc(-c2cc(Cl)ccc2OCCn2c(C)nc3c(c2=O)CC(N2CCC(C4CC(F)(F)C4)CC2)CC3)c2scc(C(=O)O)c2n1` (stereo not drawn) [Compound 156], the concentration for half-maximal inhibition (IC50) on human eIF4E protein was below 0.1 µM; in assay [1] (Homo sapiens, COLO 205, 72 h) it was below 5 µM; in assay [2] (Homo sapiens, COLO 205, 6 h) it was below 5 µM.
For `Cc1cc(-c2cc(Cl)ccc2OCCn2c(C)nc3c(c2=O)CC(N2CCC(C(F)(F)F)CC2)CC3)c2scc(C(=O)O)c2n1` (stereo not drawn) [Compound 163], the IC50 at human eIF4E protein was below 0.1 µM; in assay [1] (Homo sapiens, COLO 205, 72 h), below 5 µM; in assay [2] (Homo sapiens, COLO 205, 6 h), below 5 µM.
For the molecule `Cc1cc(-c2cc(Cl)ccc2OCCn2c(C)nc3c(c2=O)C[C@@H](N2C[C@@H]4CC(F)(F)[C@@H]4C2)CC3)c2scc(C(=O)O)c2n1` (single isomer, unassigned) [Compound 149], the 50% inhibitory concentration (IC50) at human eIF4E protein was below 0.1 µM; in assay [1] (Homo sapiens, COLO 205, 72 h), below 5 µM; in assay [2] (Homo sapiens, COLO 205, 6 h) it was below 5 µM.
Take `Cc1cc(-c2cc(Cl)ccc2OCCn2c(C)nc3c(c2=O)C[C@H](N(C)[C@H]2CC[C@@](C)(O)CC2)CC3)c2scc(C(=O)NS(C)(=O)=O)c2n1` (single isomer, unassigned) [Compound 214]: the IC50 at human eIF4E protein is below 0.1 µM; in assay [1] (Homo sapiens, COLO 205, 72 h), above 20 µM; in assay [2] (Homo sapiens, COLO 205, 6 h), above 20 µM.
For `COC1CCN(C2CCc3nc(C)n(CCOc4ccc(Cl)cc4-c4cc(C)nc5c(C(=O)NS(C)(=O)=O)csc45)c(=O)c3C2)CC1` (single isomer, unassigned) [Compound 239], the concentration for half-maximal inhibition (IC50) at human eIF4E protein is below 0.1 µM; in assay [1] (Homo sapiens, COLO 205, 72 h) it was below 5 µM; in assay [2] (Homo sapiens, COLO 205, 6 h) it was below 5 µM.
With `Cc1cc(-c2cc(Cl)ccc2OCCn2c(C)nc3c(c2=O)CC(N(C)Cc2cccs2)CC3)c2scc(C(=O)O)c2n1` (stereo not drawn) [Compound 197], the IC50 was below 0.1 µM on human eIF4E protein; below 5 µM in assay [1] (Homo sapiens, COLO 205, 72 h); below 5 µM in assay [2] (Homo sapiens, COLO 205, 6 h).
